According to patent US8247211B2, “Glycopeptide antibiotics” (American Cyanamid Company, priority 2001, dated 2012):
Converted amounts (≈) assume the structure as drawn.

Columns and labels:
Assay in all cases: In vitro antibacterial evaluation: minimum inhibitory concentration (MIC), broth dilution method
Type in all cases: cell-based
Staphylococcus sp. = details: broth dilution, 18 hours at 35° C.
Summary of the method: (§1)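 Broth dilution per NCCLS M7-A2 in Muller-Hinton II […], inoculum 5×10^5 CFU/mL, antibiotic tested over 64-0.06 μg/mL. MIC is taken as the lowest concentration that inhibits growth. Panel includes recent clinical isolates resistant to methicillin, penicillin and/or vancomycin.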

Enterococcus sp. = system: Enterococcus sp.
Summary of the method: as §1

Streptococcus sp. = system: Streptococcus sp.
Summary of the method: as §1

Escherichia coli = system: Escherichia coli
Summary of the method: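 Following NCCLS approved standard M7-A2, compounds are serially diluted from 64 to 0.06 μg/mL in Muller-Hinton II […] and inoculated at 5×10^5 CFU/mL; the MIC is the minimum concentration at which growth is inhibited.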

[1] = broth dilution, inoculum 5×10^5 CFU/mL, 18 hours at 35° C.

- MIC Coagulase Negative Staphylococcus (GC 4547) (Staphylococcus sp.; 5×10^5 CFU/mL): 16 µg/mL (≈ 10.9 µM)
- MIC Coagulase Negative Staphylococcus (GC 4548) (Staphylococcus sp.; 5×10^5 CFU/mL): 8 µg/mL (≈ 5.45 µM)
- MIC Coagulase Negative Staphylococcus (GC 4549) (Staphylococcus sp.; 5×10^5 CFU/mL): 8 µg/mL (≈ 5.45 µM)
- MIC Coagulase Negative Staphylococcus (GC 4551) (Staphylococcus sp.; 5×10^5 CFU/mL): 16 µg/mL (≈ 10.9 µM)
- MIC Coagulase Negative Staphylococcus (GC 6257) (Staphylococcus sp.; 5×10^5 CFU/mL): 8 µg/mL (≈ 5.45 µM)
- MIC Staphylococcus aureus (ATCC 29213) (Staphylococcus sp.; 5×10^5 CFU/mL): 16 µg/mL (≈ 10.9 µM)
- MIC Staphylococcus aureus (GC 1131) (Staphylococcus sp.; 5×10^5 CFU/mL): 16 µg/mL (≈ 10.9 µM)
- MIC Staphylococcus aureus (GC 3051) (Staphylococcus sp.; 5×10^5 CFU/mL): 32 µg/mL (≈ 21.8 µM)
- MIC Staphylococcus aureus (GC 3053) (Staphylococcus sp.; 5×10^5 CFU/mL): 16 µg/mL (≈ 10.9 µM)
- MIC Staphylococcus aureus (GC 4541) (Staphylococcus sp.; 5×10^5 CFU/mL): 16 µg/mL (≈ 10.9 µM)
- MIC Staphylococcus aureus (GC 4542) (Staphylococcus sp.; 5×10^5 CFU/mL): 16 µg/mL (≈ 10.9 µM)
- MIC Staphylococcus aureus (GC 4544) (Staphylococcus sp.; 5×10^5 CFU/mL): 16 µg/mL (≈ 10.9 µM)
- MIC Staphylococcus aureus (GC 4545) (Staphylococcus sp.; 5×10^5 CFU/mL): 16 µg/mL (≈ 10.9 µM)
- MIC Staphylococcus aureus-SMITH (GC 4543) (Staphylococcus sp.; 5×10^5 CFU/mL): 16 µg/mL (≈ 10.9 µM)
- MIC Staphylococcus aureus (ATCC 29213) (Staphylococcus sp.; strain ATCC 29213): 16 µg/mL (≈ 10.9 µM)
- MIC Staphylococcus aureus (GC 1131) (Staphylococcus sp.; strain GC 1131): 16 µg/mL (≈ 10.9 µM)
- MIC Staphylococcus aureus (GC 3051) (Staphylococcus sp.; strain GC 3051): 32 µg/mL (≈ 21.8 µM)
- MIC Staphylococcus aureus (GC 3053) (Staphylococcus sp.; strain GC 3053): 16 µg/mL (≈ 10.9 µM)
- MIC Staphylococcus aureus (GC 4541) (Staphylococcus sp.; strain GC 4541): 16 µg/mL (≈ 10.9 µM)
- MIC Staphylococcus aureus (GC 4542) (Staphylococcus sp.; strain GC 4542): 16 µg/mL (≈ 10.9 µM)
- MIC Staphylococcus aureus-SMITH (GC 4543) (Staphylococcus sp.; strain GC 4543): 16 µg/mL (≈ 10.9 µM)
- MIC Staphylococcus aureus (GC 4544) (Staphylococcus sp.; strain GC 4544): 16 µg/mL (≈ 10.9 µM)
- MIC Staphylococcus aureus (GC 4545) (Staphylococcus sp.; strain GC 4545): 16 µg/mL (≈ 10.9 µM)
- MIC Coagulase Negative Staphylococcus (GC 4547) (Staphylococcus sp.; strain GC 4547): 16 µg/mL (≈ 10.9 µM)
- MIC Coagulase Negative Staphylococcus (GC 4548) (Staphylococcus sp.; strain GC 4548): 8 µg/mL (≈ 5.45 µM)
- MIC Coagulase Negative Staphylococcus (GC 4549) (Staphylococcus sp.; strain GC 4549): 8 µg/mL (≈ 5.45 µM)
- MIC Coagulase Negative Staphylococcus (GC 4551) (Staphylococcus sp.; strain GC 4551): 16 µg/mL (≈ 10.9 µM)
- MIC Coagulase Negative Staphylococcus (GC 6257) (Staphylococcus sp.; strain GC 6257): 8 µg/mL (≈ 5.45 µM)
- MIC Enterococcus avium (GC 4558) (Enterococcus sp.; [1]): 16 µg/mL (≈ 10.9 µM)
- MIC Enterococcus faecalis (ATCC 29212) (Enterococcus sp.; [1]): 16 µg/mL (≈ 10.9 µM)
- MIC Enterococcus faecalis (GC 2242) (Enterococcus sp.; [1]): 16 µg/mL (≈ 10.9 µM)
- MIC Enterococcus faecalis (GC 2691) (Enterococcus sp.; [1]): 16 µg/mL (≈ 10.9 µM)
- MIC Enterococcus faecalis (GC 3059) (Enterococcus sp.; [1]): 16 µg/mL (≈ 10.9 µM)
- MIC Enterococcus faecalis (GC 4552) (Enterococcus sp.; [1]): 16 µg/mL (≈ 10.9 µM)
- MIC Enterococcus faecalis (GC 4553) (Enterococcus sp.; [1]): 16 µg/mL (≈ 10.9 µM)
- MIC Enterococcus faecalis (GC 4554) (Enterococcus sp.; [1]): 32 µg/mL (≈ 21.8 µM)
- MIC Enterococcus faecalis (GC 6189) (Enterococcus sp.; [1]): 16 µg/mL (≈ 10.9 µM)
- MIC Enterococcus faecium (GC 2243) (Enterococcus sp.; [1]): 16 µg/mL (≈ 10.9 µM)
- MIC Enterococcus faecium (GC 4556) (Enterococcus sp.; [1]): 16 µg/mL (≈ 10.9 µM)
- MIC Enterococcus faecium (GC 4557) (Enterococcus sp.; [1]): 16 µg/mL (≈ 10.9 µM)
- MIC Enterococcus faecalis (ATCC 29212) (Enterococcus sp.; strain ATCC 29212): 16 µg/mL (≈ 10.9 µM)
- MIC Enterococcus faecalis (GC 2242) (Enterococcus sp.; strain GC 2242): 16 µg/mL (≈ 10.9 µM)
- MIC Enterococcus faecium (GC 2243) (Enterococcus sp.; strain GC 2243): 16 µg/mL (≈ 10.9 µM)
- MIC Enterococcus faecalis (GC 2691) (Enterococcus sp.; strain GC 2691): 16 µg/mL (≈ 10.9 µM)
- MIC Enterococcus faecalis (GC 3059) (Enterococcus sp.; strain GC 3059): 16 µg/mL (≈ 10.9 µM)
- MIC Enterococcus faecalis (GC 4552) (Enterococcus sp.; strain GC 4552): 16 µg/mL (≈ 10.9 µM)
- MIC Enterococcus faecalis (GC 4553) (Enterococcus sp.; strain GC 4553): 16 µg/mL (≈ 10.9 µM)
- MIC Enterococcus faecalis (GC 4554) (Enterococcus sp.; strain GC 4554): 32 µg/mL (≈ 21.8 µM)
- MIC Enterococcus faecium (GC 4556) (Enterococcus sp.; strain GC 4556): 16 µg/mL (≈ 10.9 µM)
- MIC Enterococcus faecium (GC 4557) (Enterococcus sp.; strain GC 4557): 16 µg/mL (≈ 10.9 µM)
- MIC Enterococcus avium (GC 4558) (Enterococcus sp.; strain GC 4558): 16 µg/mL (≈ 10.9 µM)
- MIC Enterococcus faecalis (GC 6189) (Enterococcus sp.; strain GC 6189): 16 µg/mL (≈ 10.9 µM)
- MIC Streptococcus agalactiae (GC 4564) (Streptococcus sp.; [1]): 1 µg/mL (≈ 0.681 µM)
- MIC Streptococcus pneumoniae (ATCC 6301) (Streptococcus sp.; [1]): 0.12 µg/mL (≈ 0.0818 µM)
- MIC Streptococcus pneumoniae (GC 1894) (Streptococcus sp.; [1]): <0.06 µg/mL
- MIC Streptococcus pneumoniae (GC 4565) (Streptococcus sp.; [1]): 0.12 µg/mL (≈ 0.0818 µM)
- MIC Streptococcus pyogenes (GC 4563) (Streptococcus sp.; [1]): 0.12 µg/mL (≈ 0.0818 µM)
- MIC Streptococcus pneumoniae (ATCC 6301) (Streptococcus sp.; strain ATCC 6301): 0.12 µg/mL (≈ 0.0818 µM)
- MIC Streptococcus pneumoniae (GC 1894) (Streptococcus sp.; strain GC 1894): <0.06 µg/mL
- MIC Streptococcus pyogenes (GC 4563) (Streptococcus sp.; strain GC 4563): 0.12 µg/mL (≈ 0.0818 µM)
- MIC Streptococcus agalactiae (GC 4564) (Streptococcus sp.; strain GC 4564): 1 µg/mL (≈ 0.681 µM)
- MIC Streptococcus pneumoniae (GC 4565) (Streptococcus sp.; strain GC 4565): 0.12 µg/mL (≈ 0.0818 µM)
- MIC Escherichia coli (ATCC 25922) (Escherichia coli; strain ATCC 25922): >64 µg/mL
- MIC Escherichia coli (GC 4559) (Escherichia coli; strain GC 4559): >64 µg/mL
- MIC Escherichi coli (GC 4560) (Escherichia coli; strain GC 4560): 16 µg/mL (≈ 10.9 µM)
SMILES: CC(C)=CCOc1cccc(C2OCC3OC(OC4C(CO)OC(Oc5ccc(CC6NC(=O)C(C(C)c7ccccc7)NC(=O)CNC(=O)C(CO)NC(=O)C(C(O)C7CNC(=N)N7C7OC(CO)C(O)C(O)C7O)NC(=O)C(C(O)C7CNC(=N)N7)NC6=O)cc5)C(O)C4O)C(O)C(O)C3O2)c1 (stereo not shown) [Example 165]
- MIC Staphylococcus haemolyticus (GC 4546) (Staphylococcus sp.; 5×10^5 CFU/mL): 16 µg/mL (≈ 10.9 µM)
- MIC Staphylococcus haemolyticus (GC 4546) (Staphylococcus sp.; strain GC 4546): 16 µg/mL (≈ 10.9 µM)
